For assay [1], the system named is Staphylococcus aureus V41. Nature of the assay: MIC, standard agar-dilution assay. It counts as cell-based.
Assay [2] concerns Staphylococcus aureus X1.1. As to the kind of experiment: MIC, standard agar-dilution assay. It counts as cell-based.
The test system of assay [3] is Staphylococcus aureus S13E. It counts as cell-based. The conditions noted are these: agar dilution. Background: Agar dilution tests growth on a series of plates holding different concentrations.
In assay [4] the test system is Streptococcus pyogenes C203. As to the kind of experiment: MIC, standard agar-dilution assay. It counts as cell-based.
Assay [5] deals with Staphylococcus aureus X400. As to the kind of experiment: MIC, standard agar-dilution assay. The assay is classed as cell-based. The conditions noted are these: Staphylococcus aureus X400, methicillin-resistant strain.
In assay [6] the test system is Streptococcus Group D X66. As to the kind of experiment: MIC, standard agar-dilution assay. It counts as cell-based.
In assay [7] the test system is Streptococcus pneumoniae Park I. The assay is classed as cell-based. The following applies: agar dilution.
Assay [8] concerns Staphylococcus epidermidis EPI1. It counts as cell-based.
A further assay concerns Streptococcus Group 9960. As to the kind of experiment: MIC, standard agar-dilution assay. It counts as cell-based.
Assay [9] concerns Staphylococcus epidermidis EPI2. Nature of the assay: MIC, standard agar-dilution assay. It counts as cell-based.
In assay [10] the test system is Haemophilus influenzae 76. As to the kind of experiment: MIC, standard agar-dilution assay. The assay is classed as cell-based. The following applies: Haemophilus influenzae 76, ampicillin-resistant strain.
In assay [11] the test system is Haemophilus influenzae C.L. As to the kind of experiment: MIC, standard agar-dilution assay. The conditions noted are these: ampicillin-sensitive strain. The assay is classed as cell-based.
The test system of the next assay is Staphylococcus aureus. Nature of the assay: ED50 in experimentally infected mice. It counts as in vivo. The conditions noted are these: mice infected with Staphylococcus aureus; administered subcutaneously 1 and 4 hours postinfection.
Where [12] appears, read: Staphylococcus aureus V41, penicillin-resistant strain, agar dilution.
The mark [13] stands for this setting: Staphylococcus aureus X1.1, agar dilution.
The mark [14] stands for this setting: Streptococcus pyogenes C203, agar dilution.
Where [15] appears, read: Streptococcus Group D X66, agar dilution.
The mark [16] stands for this setting: Staphylococcus epidermidis EPI1, agar dilution.
Where [17] appears, read: Streptococcus Group 9960, agar dilution.

Like-named read-outs stand apart in the source and are kept apart here.

Consider “N--[N--(t-Boc)--11-aminoundecanoyl)A35512B [Example 6]”, for which the MIC in assay [1] (setting [12]) is 4 µg/mL; in [2] (setting [13]), 2 µg/mL; in [3] it was 4 µg/mL; in [4] (setting [14]), 1 µg/mL; in [5], 4 µg/mL; in assay [6] (setting [15]) it was 2 µg/mL. Also, the MIC in assay [7] was 1 µg/mL; in [8] (setting [16]), 8 µg/mL; against Streptococcus Group 9960 (setting [17]), 4 µg/mL; in assay [9] it was 8 µg/mL.
Regarding “N-[N-(tert-butoxycarbonyl)-L-phenylalanyl]-A35512B [Example 1]”, the MIC in [1] (setting [12]) turned out to be 8 µg/mL; in assay [2] (setting [13]), 8 µg/mL; in assay [3], 8 µg/mL; in assay [4] (setting [14]), 1 µg/mL; in assay [5], 16 µg/mL; in assay [6] (setting [15]), 4 µg/mL. Further, the MIC in assay [7] worked out at 2 µg/mL; in [8] (setting [16]), 8 µg/mL; with Streptococcus Group 9960 (setting [17]), 2 µg/mL; in assay [9], 32 µg/mL.
As for “N--[N--(t-Boc)--L-phenylalanyl)A41030A [Example 16]”, the MIC is 0.25 µg/mL in assay [1] (setting [12]); 0.25 µg/mL in assay [2] (setting [13]); 0.25 µg/mL in assay [3]; 0.5 µg/mL in assay [4] (setting [14]); 0.5 µg/mL in assay [5]; 1 µg/mL in assay [6] (setting [15]). The MIC is 32 µg/mL in assay [10]; 0.5 µg/mL in assay [7]; 32 µg/mL in [11]; 0.25 µg/mL in assay [8] (setting [16]); 0.125 µg/mL in the assay with Streptococcus Group 9960 (setting [17]); 0.5 µg/mL in [9].
Take “N--(11-aminoundecanoyl)A35512B [Example 7]”: the MIC in assay [1] (setting [12]) stood at 4 µg/mL; in [2] (setting [13]), 4 µg/mL; in assay [3] it was 4 µg/mL; in assay [4] (setting [14]) it was 2 µg/mL; in [5] it was 8 µg/mL; in [6] (setting [15]), 4 µg/mL. The MIC result in assay [10] was “-- (Compound not active at less than 128 mcg/ml)”; in assay [7], 4 µg/mL; in [11], “-- (Compound not active at less than 128 mcg/ml)”; in [8] (setting [16]), 8 µg/mL; against Streptococcus Group 9960 (setting [17]), 4 µg/mL; in [9], 16 µg/mL. Also, the ED50 with Staphylococcus aureus worked out at 4.5 mg/kg × 2.
Take N-(L-phenylalanyl)A35512B [Example 2]: the MIC in assay [1] (setting [12]) came out at 4 µg/mL; in assay [2] (setting [13]), 4 µg/mL; in assay [3] it was 4 µg/mL; in assay [4] (setting [14]), 2 µg/mL; in assay [5], 8 µg/mL; in assay [6] (setting [15]) it was 4 µg/mL. Moreover, the MIC stood at 4 µg/mL in assay [7], 4 µg/mL in assay [8] (setting [16]), 4 µg/mL with Streptococcus Group 9960 (setting [17]) and 8 µg/mL in [9]. This substance came in with an ED50 with Staphylococcus aureus of 5.87 mg/kg × 2.
With “N--[N--(hexanoyl)-L-tryptophyl]A35512B [Example 3]”, the MIC in assay [1] (setting [12]) was determined as 8 µg/mL; in assay [2] (setting [13]), 4 µg/mL; in assay [3], 4 µg/mL; in assay [4] (setting [14]), 1 µg/mL; in assay [5], 8 µg/mL; in assay [6] (setting [15]), 4 µg/mL. For the same substance, the MIC amounted to 1 µg/mL in assay [7], 8 µg/mL in assay [8] (setting [16]), 2 µg/mL in the assay on Streptococcus Group 9960 (setting [17]) and 8 µg/mL in assay [9]. Further, in the assay on Staphylococcus aureus, the ED50 stood at 10.84 mg/kg × 2.
Regarding N--(nonanoyl)A35512B [Example 8], the MIC in assay [1] (setting [12]) stood at 2 µg/mL; in assay [2] (setting [13]), 2 µg/mL; in assay [3] it was 2 µg/mL; in assay [4] (setting [14]), 2 µg/mL; in [5], 2 µg/mL; in assay [6] (setting [15]), 4 µg/mL. Moreover, the MIC was determined as 4 µg/mL in assay [7], 2 µg/mL in assay [8] (setting [16]), 2 µg/mL in the assay on Streptococcus Group 9960 (setting [17]) and 4 µg/mL in assay [9]. Besides, the ED50 in the assay on Staphylococcus aureus was determined as 11.34 mg/kg × 2.
Regarding “N--[N--(t-Boc)--11-aminoundecanoyl]A35512B pseudoaglycone [Example 14]”, the MIC turned out to be 8 µg/mL in [1] (setting [12]); 8 µg/mL in [2] (setting [13]); 8 µg/mL in [3]; 4 µg/mL in assay [4] (setting [14]); 8 µg/mL in assay [5]; 4 µg/mL in assay [6] (setting [15]). For the same substance, the MIC result in assay [10] was “-- (Compound not active at less than 128 mcg/ml)”; in [7], 4 µg/mL; in assay [11], “-- (Compound not active at less than 128 mcg/ml)”; in [8] (setting [16]), 4 µg/mL; in the assay on Streptococcus Group 9960 (setting [17]) it was 8 µg/mL; in assay [9], 16 µg/mL.
Turning to “N--[N--(t-Boc)--L-phenylalanyl)A47934 [Example 23]”, the MIC amounted to 0.125 µg/mL in assay [1] (setting [12]); 0.125 µg/mL in assay [2] (setting [13]); 0.125 µg/mL in assay [3]; 0.5 µg/mL in assay [4] (setting [14]); 0.25 µg/mL in assay [5]; 1 µg/mL in assay [6] (setting [15]). The MIC in assay [10] was determined as 8 µg/mL; in [7], 0.125 µg/mL; in assay [11], 8 µg/mL; in [8] (setting [16]), 0.125 µg/mL; in the assay with Streptococcus Group 9960 (setting [17]), 2 µg/mL; in assay [9], 0.5 µg/mL.
On to “N--(11-aminoundecanoyl)A35512B pseudoaglycone [Example 15]”, for which the MIC in assay [1] (setting [12]) was 1 µg/mL; in assay [2] (setting [13]), 1 µg/mL; in assay [3], 1 µg/mL; in assay [4] (setting [14]), 1 µg/mL; in [5] it was 1 µg/mL; in assay [6] (setting [15]) it was 2 µg/mL. Further, the MIC result is “-- (Compound not active at less than 128 mcg/ml)” in [10]; “-- (Compound not active at less than 128 mcg/ml)” in [7]; “-- (Compound not active at less than 128 mcg/ml)” in assay [11]; 2 µg/mL in assay [8] (setting [16]); 2 µg/mL against Streptococcus Group 9960 (setting [17]); 2 µg/mL in [9].
Turning to “N--(nonanoyl)A35512B pseudoaglycone [Example 13]”, the MIC was determined as 2 µg/mL in assay [1] (setting [12]); 2 µg/mL in [2] (setting [13]); 2 µg/mL in assay [3]; 2 µg/mL in assay [4] (setting [14]); 2 µg/mL in assay [5]; 4 µg/mL in assay [6] (setting [15]). Further, the MIC entry in assay [10] was “-- (Compound not active at less than 128 mcg/ml)”; in assay [7], 4 µg/mL; in assay [11], “-- (Compound not active at less than 128 mcg/ml)”; in assay [8] (setting [16]), 2 µg/mL; against Streptococcus Group 9960 (setting [17]), 2 µg/mL; in assay [9], 4 µg/mL.
Consider “N--[(3-sydnone)acetyl]A35512B [Example 12]”, for which the MIC is 8 µg/mL in [1]; 4 µg/mL in [2]; 8 µg/mL in [3]; 2 µg/mL in assay [4]; 16 µg/mL in [5]; 8 µg/mL in [6]. Also, the MIC in assay [7] was 2 µg/mL; in assay [8], 8 µg/mL; against Streptococcus Group 9960, 8 µg/mL; in assay [9], 16 µg/mL. Besides, in the assay on Staphylococcus aureus, the ED50 stood at 10.97 mg/kg × 2.
Take “N--[N--(t-Boc)--D-phenylglycyl]A35512B [Example 4]”: the MIC was determined as 8 µg/mL in assay [1] (setting [12]); 4 µg/mL in [2] (setting [13]); 8 µg/mL in assay [3]; 2 µg/mL in assay [4] (setting [14]); 16 µg/mL in assay [5]; 8 µg/mL in assay [6] (setting [15]). For the same substance, the MIC result in assay [10] is “-- (Compound not active at less than 128 mcg/ml)”; in assay [7], 2 µg/mL; in assay [11] it was “-- (Compound not active at less than 128 mcg/ml)”; in assay [8] (setting [16]), 8 µg/mL; against Streptococcus Group 9960 (setting [17]) it was 4 µg/mL; in [9] it was 16 µg/mL.
“N--[p-(dodecyloxy)phenylpropanoyl]A35512B [Example 9]”: the MIC in [1] (setting [12]) is 8 µg/mL; in assay [2] (setting [13]), 4 µg/mL; in assay [3], 8 µg/mL; in assay [4] (setting [14]), 2 µg/mL; in [5], 8 µg/mL; in assay [6] (setting [15]), 4 µg/mL. The MIC in assay [7] was determined as 2 µg/mL; in assay [8] (setting [16]), 16 µg/mL; in the assay on Streptococcus Group 9960 (setting [17]), 4 µg/mL; in assay [9] it was 16 µg/mL. The ED50 in the assay with Staphylococcus aureus came out at 70 mg/kg × 2.
With N--(D-phenylglycyl)A35512B [Example 5], the MIC in [1] (setting [12]) came to 4 µg/mL; in assay [2] (setting [13]) it was 4 µg/mL; in assay [3], 8 µg/mL; in assay [4] (setting [14]), 2 µg/mL; in assay [5], 8 µg/mL; in assay [6] (setting [15]), 8 µg/mL. Moreover, the MIC in assay [7] turned out to be 4 µg/mL; in assay [8] (setting [16]) it was 4 µg/mL; in the assay with Streptococcus Group 9960 (setting [17]), 4 µg/mL; in [9], 8 µg/mL. The same substance showed an ED50 in the assay on Staphylococcus aureus of 14.4 mg/kg × 2.

The values above are taken from patent US4497802A, “N-Acyl glycopeptide derivatives” (Eli Lilly and Company, priority 1983, dated 1985).
